The source of these data is article PMC6839502 (Journal of Alzheimer's Disease, 2019).

For series [1], the system named is fur, hair and skin pigmentation. Conditions: cited from earlier work; for Fur and skin pigmentation: mice, rats, or dogs following chronic dosing regimens.
Another series deals with BACE1 over BACE2. Conditions: cited from earlier work.
The conditions of series [2]: cited from earlier work.
For the next series, the system named is CSF Aβ. Conditions: cited from earlier work; for Reduction of CSF Aβ40: healthy adults and older subjects combined; for Reduction in CSF Aβ: healthy older subjects; for Average reduction of steady state CSF Aβ40: mild-to-moderate AD patients.
Series [3] is described as follows: Safety and tolerability in study B8271007. Format: in vivo, human. The following applies: single oral dose of 2 mg midazolam alone (period 1).
For another series, the system named is BACE1 over CatD. The following applies: cited from earlier work.

Where two headings read alike, the source gives them in different places.

Consider `C[C@@]1(c2nc(NC(=O)c3ncc(C(F)(F)F)cc3Cl)ccc2F)CO[C@@](C)(C(F)(F)F)C(N)=N1` [CNP520], for which the Hair depigmentation result in series [1] (long-term treatment in mice or dogs) is “did not result in any hair depigmentation”. In addition, in the series with BACE1 over BACE2, the “Selectivity for BACE1 over BACE2 in vitro” value is 3 fold. Also, the “Liver toxicity in clinical studies” value in series [2] was “liver toxicity was not reported”.
With `C[C@@]1(c2cc(NC(=O)c3ccc(C#N)cn3)ccc2F)C=CSC(N)=N1` [JNJ-54861911], the “Reduction of CSF Aβ40” value in the series on CSF Aβ (5 mg QD) is recorded as “approximately 50%”; in the series with CSF Aβ (25 mg QD), approximately 80%. Also, the “Liver toxicity in clinical studies” value in series [2] (Phase II and Phase IIb/III studies) is listed as “concerns over abnormal liver enzymes leading to the termination”.
`Cc1ncc2n1-c1ccc(Cl)cc1C(c1ccccc1F)=NC2` [midazolam, reference compound]: in series [3], the “TEAEs deemed treatment related” value is “none” and the TEAEs reported entry is “three”.
As for `CC#Cc1cncc(-c2ccc3c(c2)[C@@]2(N=C(C)C(N)=N2)[C@]2(CC[C@H](OC)CC2)C3)c1` [AZD3293], the Hair depigmentation entry in series [1] (animal studies) is “hair depigmentation”. Further, in series [1], the “Fur and skin pigmentation” value is “fur and skin pigment loss”. The “Reduction in CSF Aβ” value was “approximately 51%” in the series with CSF Aβ (15 mg QD) and approximately 76% with CSF Aβ (50 mg QD). The “Liver toxicity in clinical studies” value in series [2] is recorded as “liver toxicity was not reported”. For the same compound, the “Selectivity for BACE1 over CatD” value in the series with BACE1 over CatD is reported as “good selectivity”.
For `NC1=N[C@@]2(c3cc(NC(=O)c4ccc(F)cn4)ccc3F)COC[C@H]2CS1` [LY2886721], the “Liver toxicity in clinical studies” value in series [2] (Phase II study) is recorded as “concerns over abnormal liver enzymes leading to the termination”.
As for `CN1C(=N)N[C@](C)(c2cc(NC(=O)c3ccc(F)cn3)ccc2F)CS1(=O)=O` [MK-8931], the Hair depigmentation result in series [1] (animal studies) is recorded as “hair depigmentation”. Besides, the “Average reduction of steady state CSF Aβ40” value with CSF Aβ (12 mg QD) is recorded as 57%; in the series with CSF Aβ (40 mg QD) it was 79%. Also, in series [2], the “Liver toxicity in clinical studies” value is given as “liver toxicity was not reported”.
Take `Cc1cc(C#N)cnc1C(=O)Nc1ccc(F)c([C@]2(C)CO[C@@](C)(C(F)(F)F)C(N)=N2)c1` [NB-360]: the “Fur and skin pigmentation” value in series [1] is “fur and skin pigment loss”.
